Reference: paper PMC8752738, “A propolis-derived small molecule ameliorates metabolic syndrome in obese mice by targeting the CREB/CRTC2 transcriptional complex” (Nature Communications, 2022)
“And” between values parts separate entries of the source, which are not always exact repeats. Identical values can stand only once.

Tested on: tissue mRNA levels
Test: Quantitative PCR of tissue gene expression in treated mice;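 as to mRNA levels Retn: daily intraperitoneal dosing for 5 weeks versus vehicle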;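 as to mRNA levels Srebf-1c: daily intraperitoneal dosing for 5 weeks versus vehicle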;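 as to mRNA levels Srebf-2: daily intraperitoneal dosing for 5 weeks versus vehicle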;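 as to mRNA levels Tnfaip2: daily intraperitoneal dosing for 5 weeks versus vehicle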
Type: in vivo, mouse
Set-up: key to mRNA levels Scap / mRNA levels Insig1 / mRNA levels Ldlr / mRNA levels Mttp / mRNA levels Atgl / mRNA levels Tnfaip2 / mRNA levels Rxra / mRNA levels Srebf1 / mRNA levels Ucp2: mRNA level normalized to ribosomal L32 mRNA (internal control)
Protocol: Total RNA from cells and tissues was extracted by Trizol (Invitrogen) and reverse-transcribed into cDNA using the prime script RT reagent kit with gDNA eraser (Takara). The mRNA levels were determined using the SYBR-green PCR kit (Takara) with ABIPRISM 7900HT Sequence detector (ABI) according to the manufacturer’s protocol. The quantitative qPCR primers used in this work are listed in Supplementary Table 1. Ribosomal L32 mRNA levels were used as an internal control.

[1] = Figure 6d, white fat (WF) tissue of DIO mice, individual animals
[2] = db/db mice, liver, individual mouse, relative to VEH
[3] = liver of DIO mice, individual animals, n=5, relative to VEH

CC(C)=CCc1cc(C=CC(=O)O)cc(CC=C(C)C)c1O [APC, 3,5-diprenyl-4-hydroxycinnamic acid]
mRNA levels Retn [1]: 0.123 and 0.143 and 0.2381 and 0.235 and 0.5597 and 0.5846 | mRNA levels Scd1 [1]: 0.2084 and 0.3568 and 0.6736 and 0.7934 and 0.506 and 0.7156 | mRNA levels Srebf-1c [1]: 0.5354 and 0.1144 and 0.4679 and 0.2361 and 0.4842 and 0.3947 | mRNA levels Srebf-2 [1]: 0.5798 and 0.5629 and 0.8096 and 0.529 and 0.7852 and 0.6266 | mRNA levels Tnfaip2 [1]: 1.35 and 1.386 and 0.7621 and 0.8823 and 0.8616 and 0.7122 | Mean Diff. (Veh. vs. treated; head of the quantity not shown, section just before Figure 7h) (WT mice, Met 200mg/kg or APC-20): 0.5814 | CREB targets in tissues: Brain-Creb, Mean of APC (brain, Creb mRNA, group mean): 1.036 | CREB targets in tissues: Brain-Creb (brain, Creb mRNA, individual animals): 1.197 and 1.012 and 0.7996 and 1.136 | CREB targets in tissues: Brain-Nr4a1, Mean of APC (brain, Nr4a1 mRNA, group mean): 1.211 | CREB targets in tissues: Brain-Nr4a1 (brain, Nr4a1 mRNA, individual animals): 1.274 and 1.137 and 0.9545 and 1.476 | G6pc mRNA levels in the liver of db/db, Mean of APC (db/db mice, liver, group mean): 0.7471 | Pck1 mRNA levels in the liver of db/db, Mean of APC (db/db mice, liver, group mean): 0.6226 | Pgc1a mRNA levels in the liver of db/db, Mean of APC (db/db mice, liver, group mean): 0.7977 | Pgc1beta mRNA levels in the liver of db/db, Mean of APC (db/db mice, liver, group mean): 0.5441 | G6pc mRNA levels in the liver of db/db [2]: 0.8066 and 0.775 and 0.6553 and 0.7287 and 0.77 | Pck1 mRNA levels in the liver of db/db [2]: 0.6945 and 0.6263 and 0.76 and 0.3641 and 0.668 | Pgc1a mRNA levels in the liver of db/db [2]: 0.6615 and 0.9739 and 0.731 and 0.852 and 0.77 | Pgc1beta mRNA levels in the liver of db/db [2]: 0.4871 and 0.4573 and 0.6546 and 0.4823 and 0.6391 | CREB targets in tissues: Intestine-Creb, Mean of APC (intestine, Creb mRNA, group mean): 0.8467 | CREB targets in tissues: Intestine-Creb (intestine, Creb mRNA, individual animals): 1.179 and 0.6319 and 0.7341 and 0.8415 | CREB targets in tissues: Intestine-Gcg, Mean of APC (intestine, Gcg mRNA, group mean): 1.011 | CREB targets in tissues: Intestine-Gcg (intestine, Gcg mRNA, individual animals): 1.309 and 1.259 and 0.7551 and 0.7184 | CREB targets in tissues: Intestine-Nr4a1, Mean of APC (intestine, Nr4a1 mRNA, group mean): 0.8751 | CREB targets in tissues: Intestine-Nr4a1 (intestine, Nr4a1 mRNA, individual animals): 0.8692 and 0.9136 and 0.8672 and 0.8504 | CREB targets in tissues: Kidney-Creb, Mean of APC (kidney, Creb mRNA, group mean): 1.013 | CREB targets in tissues: Kidney-Creb (kidney, Creb mRNA, individual animals): 1.268 and 1.031 and 0.912 and 0.8402 | CREB targets in tissues: Kidney-Nr4a1, Mean of APC (kidney, Nr4a1 mRNA, group mean): 1.291 | CREB targets in tissues: Kidney-Nr4a1 (kidney, Nr4a1 mRNA, individual animals): 1.347 and 1.276 and 1.454 and 1.087 | mRNA levels of nuclear receptor in the liver of DIO mice: Lxrα [3]: 0.586 and 0.8678 and 0.6768 and 0.6509 and 0.6469 | mRNA levels of nuclear receptor in the liver of DIO mice: Pparα [3]: 0.9724 and 0.9732 and 1.109 and 1.163 and 1.051 | mRNA levels of nuclear receptor in the liver of DIO mice: Pparγ [3]: 1.158 and 1.005 and 1.0158 and 1.1983 and 1.083 | mRNA levels of nuclear receptor in the liver of DIO mice: Rxrα [3]: 0.9006 and 1.063 and 0.8578 and 0.9925 and 1.111 | mRNA levels of nuclear receptor in the liver of DIO mice: Lxrα, group mean (Mean 1) (liver of DIO mice, mean of N=5): 0.6857 | mRNA levels of nuclear receptor in the liver of DIO mice: Pparα, group mean (Mean 1) (liver of DIO mice, mean of N=5): 1.054 | mRNA levels of nuclear receptor in the liver of DIO mice: Pparγ, group mean (Mean 1) (liver of DIO mice, mean of N=5): 1.092 | mRNA levels of nuclear receptor in the liver of DIO mice: Rxrα, group mean (Mean 1) (liver of DIO mice, mean of N=5): 0.9849 | CREB targets in tissues: Mus-Creb, Mean of APC (muscle, Creb mRNA, group mean): 1.048 | CREB targets in tissues: Mus-Creb (muscle, Creb mRNA, individual animals): 1.0591 (2×) and 0.9897 and 1.082 | CREB targets in tissues: Mus-Nr4a1, Mean of APC (muscle, Nr4a1 mRNA, group mean): 1.244 | CREB targets in tissues: Mus-Nr4a1 (muscle, Nr4a1 mRNA, individual animals): 1.457 (2×) and 0.6913 and 1.369 | CREB targets in tissues: Mus-Pdk1, Mean of APC (muscle, Pdk1 mRNA, group mean): 0.9489 | CREB targets in tissues: Mus-Pdk1 (muscle, Pdk1 mRNA, individual animals): 0.9576 (2×) and 0.8606 and 1.02 | liver mRNA levels of Srebp-1c and 2 in CRTC2 knockout mice (oral 20 mg/kg daily, 3 weeks): did not further decrease | CREB targets in tissues: Pancreac-C2cd4a, Mean of APC (pancreas, C2cd4a mRNA, group mean): 0.9353 | CREB targets in tissues: Pancreac-C2cd4a (pancreas, C2cd4a mRNA, individual animals): 1.193 and 0.8753 and 0.8055 and 0.8678 | CREB targets in tissues: Pancreac-Creb, Mean of APC (pancreas, Creb mRNA, group mean): 1.238 | CREB targets in tissues: Pancreac-Creb (pancreas, Creb mRNA, individual animals): 1.233 and 1.182 and 1.267 and 1.269 | CREB targets in tissues: Pancreac-Nr4a1, Mean of APC (pancreas, Nr4a1 mRNA, group mean): 1.238 | CREB targets in tissues: Pancreac-Nr4a1 (pancreas, Nr4a1 mRNA, individual animals): 0.9381 and 1.521 and 1.263 and 1.23 | CREB targets in tissues: Spleen-Creb, Mean of APC (spleen, Creb mRNA, group mean): 1.07 | CREB targets in tissues: Spleen-Creb (spleen, Creb mRNA, individual animals): 1.294 and 1.069 and 0.8334 and 1.085 | CREB targets in tissues: Spleen-Nr4a1, Mean of APC (spleen, Nr4a1 mRNA, group mean): 1.115 | CREB targets in tissues: Spleen-Nr4a1 (spleen, Nr4a1 mRNA, individual animals): 1.516 and 1.042 and 0.6673 and 1.233
